Assays:
Test in all cases: relative viability (nuclei count vs DMSO), 5 days (fraction); higher = more cells survive
ABC-1 = system: ABC-1
In short: (§1)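 Relative viability equals treated-well nuclei counts divided by vehicle-well nuclei counts. Counts came from 4× images of lung cancer cell lines grown in 1536-well plates for 5 days after pin-tool dosing on the day after seeding. Dosing used one drug alone or a fixed anchor-drug dose plus five library-drug doses (not always all listed) in √10 steps, and values are medians of duplicate plates.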

LCLC-103H = system: LCLC-103H
In short: as §1

NCI-H1944 = system: NCI-H1944
In short: as §1

NCI-H838 = system: NCI-H838
In short: as §1

NCI-H661 = system: NCI-H661
In short: as §1

NCI-H2085 = system: NCI-H2085
In short: as §1

NCI-H1666 = system: NCI-H1666
In short: as §1

SW 900 = system: SW 900
In short: as §1

NCI-H727 = system: NCI-H727
In short: as §1

BEN = system: BEN
In short: as §1

NCI-H596 = system: NCI-H596
In short: as §1

NCI-H1975 = system: NCI-H1975
In short: as §1

RERF-LC-KJ = system: RERF-LC-KJ
In short: as §1

CAL-12T = system: CAL-12T
In short: as §1

A-427 = system: A-427
In short: as §1

NCI-H520 = system: NCI-H520
In short: as §1

HARA = system: HARA
In short: as §1

LOU-NH91 = system: LOU-NH91
In short: as §1

NCI-H460 = system: NCI-H460
In short: as §1

NCI-H647 = system: NCI-H647
In short: as §1

NCI-H1734 = system: NCI-H1734
In short: as §1

NCI-H2126 = system: NCI-H2126
In short: as §1

NCI-H1651 = system: NCI-H1651
In short: as §1

Q: With Cc1csc(=NC2CCCCC2)n1/N=C/c1ccc(O)c(O)c1O [MIM1] + Cc1nc(Nc2ncc(C(=O)Nc3c(C)cccc3Cl)s2)cc(N2CCN(CCO)CC2)n1 [Dasatinib] (partner 0.075 µM) as the compound, how does the relative viability (ABC-1; first compound 0.2 µM) read?
A: 0.598

Q: What about the relative viability (ABC-1; first compound 0.6325 µM) of the same compound?
A: 0.555

Q: And the relative viability (ABC-1; first compound 2 µM)?
A: 0.543

Q: What about the relative viability (ABC-1; first compound 6.325 µM) of the same compound?
A: 0.299

Q: And the relative viability (ABC-1; first compound 20 µM)?
A: 0.248

Q: What about the relative viability (LCLC-103H; first compound 0.2 µM) of the same compound?
A: 0.422

Q: And the relative viability (LCLC-103H; first compound 0.6325 µM)?
A: 0.519

Q: What about the relative viability (LCLC-103H; first compound 2 µM) of the same compound?
A: 0.512

Q: And the relative viability (LCLC-103H; first compound 6.325 µM)?
A: 0.401

Q: And the relative viability (LCLC-103H; first compound 20 µM)?
A: 0.364

Q: And the relative viability (NCI-H1944; first compound 0.2 µM)?
A: 0.214

Q: What about the relative viability (NCI-H1944; first compound 0.6325 µM) of the same compound?
A: 0.204

Q: And the relative viability (NCI-H1944; first compound 2 µM)?
A: 0.21

Q: And the relative viability (NCI-H1944; first compound 6.325 µM)?
A: 0.191

Q: And the relative viability (NCI-H1944; first compound 20 µM)?
A: 0.176

Q: What about the relative viability (NCI-H838; first compound 0.2 µM) of the same compound?
A: 0.326

Q: And the relative viability (NCI-H838; first compound 0.6325 µM)?
A: 0.298

Q: What about the relative viability (NCI-H838; first compound 6.325 µM) of the same compound?
A: 0.314

Q: What about the relative viability (NCI-H838; first compound 20 µM) of the same compound?
A: 0.218

Q: What about the relative viability (NCI-H661; first compound 0.2 µM) of the same compound?
A: 0.997

Q: What about the relative viability (NCI-H661; first compound 0.6325 µM) of the same compound?
A: 0.866

Q: And the relative viability (NCI-H661; first compound 2 µM)?
A: 0.87

Q: What about the relative viability (NCI-H661; first compound 6.325 µM) of the same compound?
A: 0.406

Q: And the relative viability (NCI-H661; first compound 20 µM)?
A: 0.224

Q: And the relative viability (NCI-H2085; first compound 0.2 µM)?
A: 0.323

Q: What about the relative viability (NCI-H2085; first compound 0.6325 µM) of the same compound?
A: 0.251

Q: What about the relative viability (NCI-H2085; first compound 2 µM) of the same compound?
A: 0.261

Q: What about the relative viability (NCI-H2085; first compound 6.325 µM) of the same compound?
A: 0.241

Q: And the relative viability (NCI-H2085; first compound 20 µM)?
A: 0.253

Q: What about the relative viability (NCI-H1666; first compound 0.2 µM) of the same compound?
A: 0.788

Q: And the relative viability (NCI-H1666; first compound 0.6325 µM)?
A: 0.852

Q: And the relative viability (NCI-H1666; first compound 2 µM)?
A: 0.711

Q: And the relative viability (NCI-H1666; first compound 6.325 µM)?
A: 0.528

Q: And the relative viability (NCI-H1666; first compound 20 µM)?
A: 0.41

Q: And the relative viability (SW 900; first compound 0.2 µM)?
A: 0.619

Q: And the relative viability (SW 900; first compound 0.6325 µM)?
A: 0.804

Q: What about the relative viability (SW 900; first compound 2 µM) of the same compound?
A: 0.508

Q: What about the relative viability (SW 900; first compound 6.325 µM) of the same compound?
A: 0.449

Q: What about the relative viability (SW 900; first compound 20 µM) of the same compound?
A: 0.23

Q: What about the relative viability (NCI-H727; first compound 0.2 µM) of the same compound?
A: 0.383

Q: What about the relative viability (NCI-H727; first compound 0.6325 µM) of the same compound?
A: 0.36

Q: What about the relative viability (NCI-H727; first compound 2 µM) of the same compound?
A: 0.276

Q: And the relative viability (NCI-H727; first compound 6.325 µM)?
A: 0.356

Q: What about the relative viability (NCI-H727; first compound 20 µM) of the same compound?
A: 0.267

Q: What about the relative viability (BEN; first compound 0.2 µM) of the same compound?
A: 0.304

Q: And the relative viability (BEN; first compound 0.6325 µM)?
A: 0.308

Q: What about the relative viability (BEN; first compound 2 µM) of the same compound?
A: 0.348

Q: And the relative viability (BEN; first compound 6.325 µM)?
A: 0.378

Q: And the relative viability (BEN; first compound 20 µM)?
A: 0.158

Q: What about the relative viability (NCI-H596; first compound 0.2 µM) of the same compound?
A: 0.646

Q: And the relative viability (NCI-H596; first compound 0.6325 µM)?
A: 0.651

Q: What about the relative viability (NCI-H596; first compound 2 µM) of the same compound?
A: 0.546

Q: What about the relative viability (NCI-H596; first compound 6.325 µM) of the same compound?
A: 0.61

Q: What about the relative viability (NCI-H596; first compound 20 µM) of the same compound?
A: 0.597

Q: And the relative viability (NCI-H1975; first compound 0.2 µM)?
A: 0.355

Q: What about the relative viability (NCI-H1975; first compound 0.6325 µM) of the same compound?
A: 0.377

Q: And the relative viability (NCI-H1975; first compound 2 µM)?
A: 0.346

Q: What about the relative viability (NCI-H1975; first compound 6.325 µM) of the same compound?
A: 0.185

Q: And the relative viability (NCI-H1975; first compound 20 µM)?
A: 0.17

Q: And the relative viability (RERF-LC-KJ; first compound 0.2 µM)?
A: 0.632

Q: What about the relative viability (RERF-LC-KJ; first compound 0.6325 µM) of the same compound?
A: 0.748

Q: What about the relative viability (RERF-LC-KJ; first compound 2 µM) of the same compound?
A: 0.551

Q: What about the relative viability (RERF-LC-KJ; first compound 6.325 µM) of the same compound?
A: 0.361

Q: What about the relative viability (RERF-LC-KJ; first compound 20 µM) of the same compound?
A: 0.228

Q: What about the relative viability (CAL-12T; first compound 0.2 µM) of the same compound?
A: 0.258

Q: And the relative viability (CAL-12T; first compound 0.6325 µM)?
A: 0.38

Q: What about the relative viability (CAL-12T; first compound 2 µM) of the same compound?
A: 0.215

Q: And the relative viability (CAL-12T; first compound 6.325 µM)?
A: 0.311

Q: What about the relative viability (CAL-12T; first compound 20 µM) of the same compound?
A: 0.115

Q: What about the relative viability (A-427; first compound 0.2 µM) of the same compound?
A: 0.664

Q: What about the relative viability (A-427; first compound 2 µM) of the same compound?
A: 0.716

Q: And the relative viability (A-427; first compound 6.325 µM)?
A: 0.573

Q: And the relative viability (A-427; first compound 20 µM)?
A: 0.178

Q: What about the relative viability (NCI-H520; first compound 0.2 µM) of the same compound?
A: 0.19

Q: And the relative viability (NCI-H520; first compound 0.6325 µM)?
A: 0.21

Q: What about the relative viability (NCI-H520; first compound 2 µM) of the same compound?
A: 0.286

Q: What about the relative viability (NCI-H520; first compound 6.325 µM) of the same compound?
A: 0.18

Q: What about the relative viability (NCI-H520; first compound 20 µM) of the same compound?
A: 0.192

Q: What about the relative viability (HARA; first compound 0.2 µM) of the same compound?
A: 0.216

Q: What about the relative viability (HARA; first compound 2 µM) of the same compound?
A: 0.228

Q: And the relative viability (HARA; first compound 6.325 µM)?
A: 0.24

Q: What about the relative viability (HARA; first compound 20 µM) of the same compound?
A: 0.181

Q: And the relative viability (LOU-NH91; first compound 0.2 µM)?
A: 0.502

Q: What about the relative viability (LOU-NH91; first compound 0.6325 µM) of the same compound?
A: 0.529

Q: And the relative viability (LOU-NH91; first compound 2 µM)?
A: 0.537

Q: And the relative viability (LOU-NH91; first compound 6.325 µM)?
A: 0.497

Q: What about the relative viability (LOU-NH91; first compound 20 µM) of the same compound?
A: 0.365

Q: And the relative viability (NCI-H460; first compound 0.2 µM)?
A: 0.508

Q: And the relative viability (NCI-H460; first compound 0.6325 µM)?
A: 0.42

Q: What about the relative viability (NCI-H460; first compound 2 µM) of the same compound?
A: 0.467

Q: What about the relative viability (NCI-H460; first compound 6.325 µM) of the same compound?
A: 0.327

Q: And the relative viability (NCI-H460; first compound 20 µM)?
A: 0.044

Q: And the relative viability (NCI-H647; first compound 0.2 µM)?
A: 0.232

Q: And the relative viability (NCI-H647; first compound 0.6325 µM)?
A: 0.225

Q: And the relative viability (NCI-H647; first compound 6.325 µM)?
A: 0.145

Q: What about the relative viability (NCI-H647; first compound 20 µM) of the same compound?
A: 0.0584

Q: And the relative viability (NCI-H1734; first compound 0.2 µM)?
A: 0.453

Q: What about the relative viability (NCI-H1734; first compound 0.6325 µM) of the same compound?
A: 0.446

Q: And the relative viability (NCI-H1734; first compound 2 µM)?
A: 0.487

Q: And the relative viability (NCI-H1734; first compound 6.325 µM)?
A: 0.386

Q: What about the relative viability (NCI-H1734; first compound 20 µM) of the same compound?
A: 0.161

Q: What about the relative viability (NCI-H2126; first compound 0.2 µM) of the same compound?
A: 0.679

Q: And the relative viability (NCI-H2126; first compound 0.6325 µM)?
A: 0.582

Q: What about the relative viability (NCI-H2126; first compound 2 µM) of the same compound?
A: 0.583

Q: What about the relative viability (NCI-H2126; first compound 6.325 µM) of the same compound?
A: 0.471

Q: What about the relative viability (NCI-H2126; first compound 20 µM) of the same compound?
A: 0.287

Q: And the relative viability (NCI-H1651; first compound 0.2 µM)?
A: 0.509

Q: What about the relative viability (NCI-H1651; first compound 0.6325 µM) of the same compound?
A: 0.464

Q: What about the relative viability (NCI-H1651; first compound 2 µM) of the same compound?
A: 0.458

Q: What about the relative viability (NCI-H1651; first compound 6.325 µM) of the same compound?
A: 0.282

Q: And the relative viability (NCI-H1651; first compound 20 µM)?
A: 0.182
